# Key:
# [1] = test system: MDA-MB-231 cells; assay: GI50 panel (MTT assay), MDA-MB-231; format: cell-based
# [2] = test system: SKOV-3 cells; assay: GI50 panel (MTT assay), SKOV-3; format: cell-based
# [3] = test system: SK-Br-3 cells; assay: GI50 panel (MTT assay), SK-BR-3; format: cell-based
# [4] = test system: NCI-N87 cells; assay: GI50 panel (MTT assay), NCI-N87; format: cell-based
# [5] = test system: OE-19 cells; assay: GI50 panel (MTT assay), OE19; format: cell-based
# [6] = test system: BT474 tumours; assay: Radiotherapeutic efficacy (177Lu) in BT474 xenograft model; format: in vivo, Balb/c nude mice; conditions: 177Lu-labelled test articles, IV
# Method: Healthy in female Balb/c nude mice (aged 9 weeks) were obtained from the Animal Resource Centre, Western Australia. A total of four mice per dosing group were initially implanted with estrogen pellets (17Beta-estradiol 0.72 mg/pellet 60 Day Release; Innovative Research of America) and then on day 2 were innoculated subcutaneously in the breast mammary fat pad with 10×10^6 BT474 cells in PBS:Matrigel (1:1). Mice were weighed, and tumours measured 2-3 times weekly using electronic callipers. Tumour volume (mm^3) were calculated as ((length (mm)×((width (mm))^2)/2. Mice were randomised into eight dosing groups outlined in the Table below as tumours reached mean volumes of approximately 100 mm^3 (approximately 5 weeks from implantation of cells).
# Samples of each solution were taken and mixed 1:1 with 50 mM DTPA. 5 μL of each DTPA incubated sample or neat solution was spotted on TLC paper (Agilent iTLC-SG Glass microfiber chromatography paper impregnated with silica gel) and run with 50:50 H2O:ethanol. Detection of radiolabelled species migration was then achieved using an Eckert and Ziegler Mini-Scan and Flow-Count system. […] Control experiments were conducted to monitor the elution behaviour of free ^177Lu and ^177Lu bound to DTPA for quality control. […]
# [7] = test system: MDA-MB-231 cells; assay: Cytotoxicity alamarBlue assay, MDA-MB-231 (HER2 lo); format: cell-based; conditions: 48 h; for Cell viability %: mean ± sd, n=4
# Method: (§1) The cytotoxicity of Compound 71 (control) and Compound 123 (targeted) toward MDA-MB-231, and MDA-MB-231/HER2 transfected cells were evaluated via alamarBlue assays. Cells were seeded at a density of 5×10^3, in 96-well plates and incubated overnight. Cells were then treated with indicated concentrations of test compositions for 48 h. AlamarBlue (Thermo Fisher, DAL1025) was added during the final 4 h of incubation. Reduction of alamarBlue in living cells yields a red fluorescent metabolite that can be read on a plate reader (560 nm excitation/610 nm emission). Cell viability and subsequent IC50 was determined from the blank corrected dose-response curves, with 4-parameter nonlinear nonlinear curve fit, variable slope (four parameters) in GraphPad Prism 7.02. […] Compound 123 (targeted) is approximately 140-fold increase in MDA-MB-231/HER2 cell growth inhibition compared to Compound 71 (control).
# [8] = test system: MDA-MB-231/HER2 transfected cells; assay: Cytotoxicity alamarBlue assay, MDA-MB-231/HER2 (HER2 hi); format: cell-based; conditions: 48 h; for Cell viability %: mean ± sd, n=4
# Method: MDA-MB-231 breast cancer cells were transfected with plasmid HER2 WT Addgene, 16257) using Lipofectamine 3000 according to manufacturer's instructions. After passaging in the presence of 500 μg/ml Geneticin (Thermo Fisher, catalogue 10131035), cells with stable overexpression of HER2 WT were isolated by fluorescence activated single cell sorting using a MoFlo Astrios (Beckman Coulter). A clonal cell population isolated from this process was further passaged in Geneticin before a second round of cell sorting and screening for transgene expression. A selected clone was then further expanded and stocks of this cell line, referred to as MDA-MB-231/HER2, were cryopreserved to generate a master stock of stably transduced cells.
# as §1
# [9] = test system: MDA-MB-231 cells (HER2 lo); assay: In vitro association study (flow cytometry), MDA-MB-231; format: cell-based, human; conditions: MDA-MB-231, over 24 h, result in words
# [10] = test system: MDA-MB-231/HER2 (HER2 knock in) cells; assay: In vitro association study (flow cytometry), MDA-MB-231/HER2; format: cell-based, human
# [11] = test system: SKOV-3 cells; assay: In vitro association study (flow cytometry), SKOV-3; format: cell-based, human
# Method: The HER2-expressing human metastatic carcinoma cell line MDA-MB-453 (ATCC HTB-131) and the HER2-lo epithelial adenocarcinoma cell line MDA-MB-231 (ATCC HTB-26) were maintained in Dulbecco's Modified Eagle's Medium (DMEM) containing 10% FBS and penicillin-streptomycin (100 U/mL) at 37° C. under a 5% CO2 humidified atmosphere and subcultured prior to confluence using trypsin. Human adenocarcinoma ovary cell line SKOV-3 (ATCC® HTB-77) cells were maintained in RPMI media with the addition of 10% (v/v) FBS and penicillin-streptomycin (100 U/mL) at 37° C. in a 5% CO2 humidified atmosphere and subcultured prior to confluence.
# MDA-MB-231, MDA-MB-231/HER2 (HER2 knock in) (as described in Ex 6 above), or SKOV-3 cells were seeded in a 24-well plate (1×10^5 cells per well) in 500 μL of appropriate growth media with the addition of 10% (v/v) fetal bovine serum (FBS) and incubated with Compound 36 or Compound 41 at 3.33 nM, with incubation time varied from 1 to 24 h at 37° C. in a 5% CO2 humidified atmosphere. […] Cellular binding and association of sample were then determined through flow cytometry by the acquisition of the signal from Cy5.
# To measure internalisation kinetics, nanobody-dendrimer was incubated with cells for 24, 4, 1, 0.5, and 0.1 hours at 37° C. before unbound nanobody-dendrimer was removed by washing and analysed by flow cytometry.
# [12] = test system: MDA-MB-231 cells; assay: Confocal cellular uptake, MDA-MB-231; format: cell-based; conditions: MDA-MB-231, 3.33 nM, 24 h
# Method: MDA-MB-231, MDA-MB-231/HER2 and SKOV-3 cells were plated at 1.0×10^4 cells per well into μ-slide 8-well chambered coverslip (ibidi) and allowed to adhere overnight at 37° C., 5% CO2. Compound 71 and Compound 123 (3.33 nM) were then added and allowed to incubate for 1, 3, 6, and 24 h. The cells were washed and then fixed with 1% paraformaldehyde for 20 min at room temperature. The cell membrane was stained with Alexa Fluor 488-wheat germ agglutinin (AF488-WGA, 5 μg mL^−1) in DPBS at room temperature for 10 min. The cell nuclei were counterstained with 4′,6-diamidino-2-phenylindole (DAPI, 2 μg mL^−1) in DPBS at room temperature for 10 min. Fluorescence images and optical sections were collected using a confocal microscope (Leica SP8). Images were processed with Fiji (Image J 1.52n).
# [13] = target: T1, HER2 (human epidermal growth factor receptor 2) on cells (human, UniProt P04626 23-1255); assay: flow cytometry (Cy5), SKOV-3 cells, 24 h
# T1 construct: whole, on cells; also called ERBB2; HER2 receptor
# [14] = target: T1, HER2 (human epidermal growth factor …); assay: flow cytometry (Cy5), MDA-MB-231/HER2 cells, 24 h
molecule,measurement,setting,value
"CS(=O)(=O)CCNCc1ccc(-c2ccc3ncnc(Nc4ccc(OCc5cccc(F)c5)c(Cl)c4)c3c2)o1 [Lapatinib, reference compound]",GI50,"[1]; Homo sapiens, MDA-MB-231, 72 h",112000 nM
same,GI50,"[2]; Homo sapiens, SK-OV-3, 72 h",7200 nM
same,GI50,"[3]; Homo sapiens, SK-BR-3, 72 h",138 nM
same,GI50,"[4]; Homo sapiens, NCI-N87, 72 h",8.1 nM
same,GI50,"[5]; Homo sapiens, OE19, 72 h",200 nM
BHALys[Lys]2[Lys]4[Lys]8[Lys]16[Lys]32[(α-NHAc)30(α-NHDOTA)2(ε-NHCOPEG2000)32] [Compound RH-3-160],suppression of tumour growth,[6],effective in suppressing tumour growth
"(MeTzPh)PEG4CO-NHPEG24CO—[N(PN)2][Lys]2[Lys]4[Lys]8[((α-NHCy5)1(α-NHGlu-VC-PAB-MMAE)7)(ε-NH-COPEG1100)8], G3 [Compound 71]",GI50,"[1]; MDA-MB-231, MTT, 72 h, Kadcyla based on estimated weight ADC, footnote: based on MMAE drug equivalents",12500 nM
same,GI50,"[2]; SKOV-3, MTT, 72 h, Kadcyla based on estimated weight ADC, footnote: based on MMAE drug equivalents",1600 nM
same,GI50,"[3]; SK-BR-3, MTT, 72 h, Kadcyla based on estimated weight ADC, footnote: based on MMAE drug equivalents",948 nM
same,GI50,"[4]; NCI-N87, MTT, 72 h, Kadcyla based on estimated weight ADC, footnote: based on MMAE drug equivalents",2040 nM
same,GI50,"[5]; OE19, MTT, 72 h, Kadcyla based on estimated weight ADC, footnote: based on MMAE drug equivalents",6120 nM
same,Cell viability %,"[7]; MDA-MB-231, MMAE concentration 1 × 10^−5 M",94.2 ± 12.1%
same,Cell viability %,"[7]; MDA-MB-231, MMAE concentration 1 × 10^−6 M",94.4 ± 8.2%
same,Cell viability %,"[7]; MDA-MB-231, MMAE concentration 1 × 10^−7 M",94.2 ± 12.5%
same,Cell viability %,"[7]; MDA-MB-231, MMAE concentration 1 × 10^−8 M",96.6 ± 11.7%
same,Cell viability %,"[7]; MDA-MB-231, MMAE concentration 5 × 10^−5 M",81.1 ± 5.4%
same,IC50,"[7]; MDA-MB-231, alamarBlue, MMAE concentration",Ambiguous
same,Cell viability %,"[8]; MDA-MB-231/HER2, MMAE concentration 1 × 10^−5 M",61.6 ± 3.1%
same,Cell viability %,"[8]; MDA-MB-231/HER2, MMAE concentration 1 × 10^−6 M",78.2 ± 9.1%
same,Cell viability %,"[8]; MDA-MB-231/HER2, MMAE concentration 1 × 10^−7 M",96.1 ± 3.6%
same,Cell viability %,"[8]; MDA-MB-231/HER2, MMAE concentration 1 × 10^−8 M",95.4 ± 7.6%
same,Cell viability %,"[8]; MDA-MB-231/HER2, MMAE concentration 5 × 10^−5 M",49.9 ± 15.0%
same,IC50,"[8]; MDA-MB-231/HER2, alamarBlue, MMAE concentration",2840 nM
same,binding towards cell line (flow cytometry),[9],minimal binding
same,mean fluorescence intensity (Cy5),"[10]; MDA-MB-231/HER2, 3.33 nM, 24 h, 37° C., mean±SD, n=3",16.05±1.89
same,binding towards cell line (flow cytometry),"[10]; MDA-MB-231/HER2, over 24 h, result in words",minimal binding
same,mean fluorescence intensity (Cy5),"[11]; SKOV-3, 3.33 nM, 24 h, 37° C., mean±SD, n=3",16.4±6.86
same,binding towards cell line (flow cytometry),"[11]; SKOV-3, over 24 h, result in words",minimal binding
same,association with cells (confocal microscopy),[12],little
"Nanobody*-N3/DBCO-NHCO-PEG12TCO/(MeTzPh)PEG4CO-NHPEG24CO-[N(PN)2][Lys]2[Lys]4[Lys]8[((α-NHCy5)1(α-NHGlu-VC-PAB-MMAE)7)(ε-NH-COPEG1100)8], Compound 123 (VHH, C-terminal # (unnatural amino acid, p-azido-phenylalanine) clicked to DBCO-NHCO-PEG12-TCO, joined to the tetrazine at the core of the G3 lysine dendrimer (1 Cy5, 7 Glu-VC-PAB-MMAE, 8 PEG1100), T0004 r280 names the protein Nanobody*; No synthesis paragraph for this compound; also called 2D3 nanobody targeted dendrimer) VHH: EVQLVESGGSLVQPGGSLRLSCAASGFTFDDYAMSWVRQVPGKGLEWVSSINWSGTHTDYADSVKGRFTISRNNANNTLYLQMNSLKSEDTAVYYCAKNWRDAGTTWFEKSGSAGQGTQVTVSS",fold fluorescence over Compound 71 (untargeted control),[13],~16 fold
same,fold fluorescence over Compound 71 (untargeted control),[14],~9 fold

# From patent US20240293588A1, “THERAPEUTIC CONJUGATES” (Starpharma Pty Ltd, priority 2020, published 2024)
